1 compound from US20170027958A1, “FULVESTRANT COMPOSITIONS” (THEMIS MEDICARE LIMITED, priority 2013, published 2017) can be followed below.

SMILES strings stand for the structures. Where two headings read alike, the source gives them in different places.

The nature of this data set: Solubility studies of fulvestrant in solvents, co-solvents, oils and release rate modifiers. It counts as physicochemical. Conditions: for solubility: read-out: Fulvestrant solubility achieved. As to the method:
Solubility studies of fulvestrant were performed using various combinations of solvent, co-solvents, oils and release rate modifiers. The resultant data are shown herein below Table 1.

Broadly, the solubility is how much of the substance goes into solution per volume.

Consider `C[C@]12CC[C@@H]3c4ccc(O)cc4C[C@@H](CCCCCCCCC[S+]([O-])CCCC(F)(F)C(F)(F)F)[C@H]3[C@@H]1CC[C@@H]2O` (stereo partly drawn) [Fulvestrant, 7-alpha-[9-[(4,4,5,5,5-pentafluoropentyl)sulfinyl]nonyl]estra-1,3,5(10)-triene-3,17-beta-diol], for which the Fulvestrant solubility achieved (Benzyl alcohol (4 v/v %):Diethylene glycol monoethyl ether (q.s. to 1.7 mL)) was determined as 300 mg/1.7 mL. The solubility is 151 mg/mL (Benzyl alcohol (10 v/v %):Castor oil (50 v/v %):Diethylene glycol monoethyl ether (q.s. to 1 mL)) and 200 mg/mL (benzyl alcohol / diethylene glycol monoethyl ether mixture, Benzyl alcohol (2 v/v %):Diethylene glycol monoethyl ether (q.s. to 1 mL)).
